According to US7928238B2, “1,2,3,4-tetrahydro-quinoline derivatives as CETP inhibitors” (Janssen Pharmaceutica NV, priority 2006, dated 2011):
Several values for one entry are separate records, joined by “and”; a condition that tells them apart may be missing. Identical values can stand only once. Like-named read-outs stand apart in the source and are kept apart here.

Target: T1, CETP (Homo sapiens, UniProt P11597)
T1 construct: from tissue; host or cells: human plasma from normal volunteers
T1 sequence (P11597 18-493): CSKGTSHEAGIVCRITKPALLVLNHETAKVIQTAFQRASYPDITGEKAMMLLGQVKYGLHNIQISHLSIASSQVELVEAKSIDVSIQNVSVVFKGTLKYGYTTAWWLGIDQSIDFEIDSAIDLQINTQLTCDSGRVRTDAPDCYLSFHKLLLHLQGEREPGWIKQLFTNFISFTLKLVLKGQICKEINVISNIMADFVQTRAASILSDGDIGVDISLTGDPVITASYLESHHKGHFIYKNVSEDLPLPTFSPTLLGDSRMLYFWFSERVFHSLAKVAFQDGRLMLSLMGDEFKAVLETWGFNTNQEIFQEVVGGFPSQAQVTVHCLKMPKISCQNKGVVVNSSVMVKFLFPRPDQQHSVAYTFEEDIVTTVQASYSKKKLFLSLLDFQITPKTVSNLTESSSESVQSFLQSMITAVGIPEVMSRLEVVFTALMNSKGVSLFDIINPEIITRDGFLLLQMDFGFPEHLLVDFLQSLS
Assay: CETP in vitro assay (Amersham kit TRKQ7005; modified protocol in human plasma, [3H]CE-HDL transfer)
Format: biochemical
Settings: for IC50: from plots of % control versus compound concentration
Procedure, shortened: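 IC50 values were derived by plotting % of vehicle control against compound concentration. Transfer was quantified by counting supernatant radioactivity after Dextralip/MgCl2 precipitation. Compound, human plasma and [3H]CE-HDL (about 25 μg/ml, as added) were incubated 4 h or more at 37 °C, with a 4 °C plate as the non-specific blank.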

[1] = 1 μM compound, read-out: % Inhibition @ 1 μM

Row | Compound | inhibition at 1 µM [1] | % Inhibition @ 1 μM (1 μM compound) | IC50 | inhibition at 1 µM (read-out: % Inhibition @ 1 μM, 1 μM compound)
1 | COC[C@@H](O)CN1c2cccc(-c3cccc(OC(F)(F)F)c3)c2CC[C@@H]1c1cccc(OC(F)(F)F)c1 [Compound 51] | 13% | – | – | –
2 | OC(CCl)CN1c2cccc(-c3cccc(OC(F)(F)F)c3)c2CCC1c1cccc(OC(F)(F)F)c1 (stereo not drawn) [Compound 47, 1-[2,5-Bis-(3-trifluoromethoxy-phenyl)-3,4-dihydro-2H-quinolin-1-yl]-3-chloro-propan-2-ol] | – | 68% and 44% | 744 nM | –
3 | OC(CN1c2cccc(-c3cccc(OC(F)(F)F)c3)c2CCC1c1cccs1)C(F)(F)F (stereo not drawn) [Compound 34, 1,1,1-Trifluoro-3-[2-thiophen-2-yl-5-(3-trifluoromethoxy-phenyl)-3,4-dihydro-2H-quinolin-1-yl]-propan-2-ol] | – | 12% | – | –
4 | N#Cc1cccc(C2CCc3c(-c4cccc(OC(F)(F)F)c4)cccc3N2CC(O)C(F)(F)F)c1 (stereo not drawn) [Compound 27, 3-[1-(3,3,3-Trifluoro-2-hydroxy-propyl)-5-(3-trifluoromethoxy-phenyl)-1,2,3,4-tetrahydro-quinolin-2-yl]-benzonitrile] | – | 48% and 38% | 410 nM | –
5 | CC(C)Oc1cccc(-c2cccc3c2CCC(c2cccc(OC(F)(F)C(F)F)c2)N3CC(O)C(F)(F)F)c1 (stereo not drawn) [Compound 69, 1,1,1-Trifluoro-3-{5-(3-isopropoxy-phenyl)-2-[3-(1,1,2,2-tetrafluoro-ethoxy)-phenyl]-3,4-dihydro-2H-quinolin-1-yl}-propan-2-ol] | – | 18% | – | –
6 | OC(CF)CN1c2cccc(-c3cccc(OC(F)(F)F)c3)c2CCC1c1cccc(OC(F)(F)F)c1 (stereo not drawn) [Compound 50, 1-[2,5-Bis-(3-trifluoromethoxy-phenyl)-3,4-dihydro-2H-quinolin-1-yl]-3-fluoro-propan-2-ol] | – | 13% | – | –
7 | OC(CN1c2cccc(Oc3cccc(Cl)c3Cl)c2CCC1c1cccc(OC(F)(F)C(F)F)c1)C(F)(F)F (stereo not drawn) [Compound 87, 3-{5-(2,3-Dichloro-phenoxy)-2-[3-(1,1,2,2-tetrafluoro-ethoxy)-phenyl]-3,4-dihydro-2H-quinolin-1-yl}-1,1,1-trifluoro-propan-2-ol] | – | 86% | 400 nM | –
8 | Cc1cc(-c2cccc3c2CCC(c2cccc(OC(F)(F)C(F)F)c2)N3CC(O)C(F)(F)F)ccc1Cl (stereo not drawn) [Compound 5, 3-{5-(4-Chloro-3-methyl-phenyl)-2-[3-(1,1,2,2-tetrafluoro-ethoxy)-phenyl]-3,4-dihydro-2H-quinolin-1-yl}-1,1,1-trifluoro-propan-2-ol] | – | 96% | 260 nM and 381 nM | –
9 | O=C(CN1CCOCC1)N1c2cccc(-c3cccc(OC(F)(F)F)c3)c2CCC1c1cccc(OC(F)(F)F)c1 (stereo not drawn) [Compound 88, 1-[2,5-Bis-(3-trifluoromethoxy-phenyl)-3,4-dihydro-2H-quinolin-1-yl]-2-morpholin-4-yl-ethanone] | 0% | – | – | –
10 | Oc1cccc(-c2cccc3c2CCC(c2cccc(OC(F)(F)C(F)F)c2)N3CC(O)C(F)(F)F)c1 (stereo not drawn) [Compound 42, 3-[2-[3-(1,1,2,2-Tetrafluoro-ethoxy)-phenyl]-1-(3,3,3-trifluoro-2-hydroxy-propyl)-1,2,3,4-tetrahydro-quinolin-5-yl]-phenol] | – | 97% and 106% | 231 nM | –
11 | Oc1cccc(-c2cccc3c2CCC(c2cccc(OC(F)(F)C(F)F)c2)N3CC(O)C(F)(F)F)c1 (stereo not drawn) [Compound 43, 3-[2-[3-(1,1,2,2-Tetrafluoro-ethoxy)-phenyl]-1-(3,3,3-trifluoro-2-hydroxy-propyl)-1,2,3,4-tetrahydro-quinolin-5-yl]-phenol] | – | 23% | – | –
12 | OC(CN1c2cccc(-c3cccc(Cl)c3)c2CCC1c1cccc(OC(F)(F)C(F)F)c1)C(F)(F)F (stereo not drawn) [Compound 15, 3-{5-(3-Chloro-phenyl)-2-[3-(1,1,2,2-tetrafluoro-ethoxy)-phenyl]-3,4-dihydro-2H-quinolin-1-yl}-1,1,1-trifluoro-propan-2-ol] | – | 66% | 68 nM and 59 nM | 68%
13 | C[C@@H](O)CN1c2cccc(-c3cccc(F)c3)c2CC[C@H]1c1cccc(OC(F)(F)F)c1 [Compound 56] | 0% | – | – | –

The next lines start with results.

Row | inhibition at 1 µM [1] | % Inhibition @ 1 μM (1 μM compound) | IC50 | Compound | inhibition at 1 µM (read-out: % Inhibition @ 1 μM, 1 μM compound)
14 | – | 41% and 64% | – | OC(CN1c2cccc(-c3cccc(F)c3)c2CCC1c1cccc(OC(F)(F)C(F)F)c1)C(F)(F)F (stereo not drawn) [Compound 12, 1,1,1-Trifluoro-3-{5-(3-fluoro-phenyl)-2-[3-(1,1,2,2-tetrafluoro-ethoxy)-phenyl]-3,4-dihydro-2H-quinolin-1-yl}-propan-2-ol] | –
15 | – | 101% and 99% and 79% | 70 nM and 95 nM and 187 nM | OC(CN1c2cccc(-c3cccc(F)c3)c2CCC1c1cccc(OC(F)(F)C(F)F)c1)C(F)(F)F (stereo not drawn) [Compound 11, 1,1,1-Trifluoro-3-{5-(3-fluoro-phenyl)-2-[3-(1,1,2,2-tetrafluoro-ethoxy)-phenyl]-3,4-dihydro-2H-quinolin-1-yl}-propan-2-ol] | –
16 | 84% | 76% | 122 nM and 93 nM | O[C@@H](CN1c2cccc(-c3cccc(F)c3)c2CC[C@@H]1c1cccc(OC(F)(F)C(F)F)c1)C(F)(F)F [Compound 82, (2R, αS)-3,4-Dihydro-2-[3-(1,1,2,2-tetrafluoroethoxy)phenyl]-5-[3-(fluoro)phenyl]-α-(trifluoromethyl)-1(2H)-quinolineethanol] | –
17 | – | 92% and 97% and 91% | 59 nM and 253 nM | OC(CN1c2cccc(-c3cccc(F)c3)c2CCC1c1cccc(OC(F)(F)F)c1)C(F)(F)F (stereo not drawn) [Compound 57, 1,1,1-Trifluoro-3-[5-(3-fluoro-phenyl)-2-(3-trifluoromethoxy-phenyl)-3,4-dihydro-2H-quinolin-1-yl]-propan-2-ol] | –
18 | – | 40% | – | OC(CN1c2cccc(-c3cccc(F)c3)c2CCC1c1cccc(OC(F)(F)F)c1)C(F)(F)F (stereo not drawn) [Compound 58, 1,1,1-Trifluoro-3-[5-(3-fluoro-phenyl)-2-(3-trifluoromethoxy-phenyl)-3,4-dihydro-2H-quinolin-1-yl]-propan-2-ol] | –
19 | – | 4% | – | COc1cccc(C2CCc3c(-c4cccc(OC(F)(F)F)c4)cccc3N2CC(O)C(F)(F)F)c1 (stereo not drawn) [Compound 26, 1,1,1-Trifluoro-3-[2-(3-methoxy-phenyl)-5-(3-trifluoromethoxy-phenyl)-3,4-dihydro-2H-quinolin-1-yl]-propan-2-ol] | –
